Assay [1] concerns Septoria tritici. Kind of assay: In vivo preventive test on Septoria tritici (wheat). The note with it: 500 ppm of active ingredient; wheat plants, preventive spray; grading 24 days after contamination. The procedure:
(§1) The active ingredients tested are prepared by homogenization in a mixture of acetone/tween/DMSO, and then diluted with water to obtain the desired active material concentration.
Wheat plants (“Scipion” variety), sown in starter cups on a 50/50 peat soil pozzolana substrate and grown at 22° C., are treated at the 1 leaf stage (10 cm height) by spraying with the active ingredient prepared as described above. Plants, used as controls, are treated with the mixture of acetone/tween/DMSO/water not containing the active material.
After 24 hours, the plants are contaminated by spraying the leaves with an aqueous suspension of cryopreserved Septoria tritici spores (500 000 spores per mL). The contaminated wheat plants are incubated for 72 hours at 18° C. and at 100% relative humidity, and then for 21 days at 90% relative humidity.
Grading (% of efficacy) is carried out 24 days after the contamination, in comparison with the control plants.
Under these conditions, good (at least 70%) to total protection is observed at a dose of 500 ppm of active ingredient with the following compounds from table J: […]

In assay [2] the test system is Botrytis cinerea. Kind of assay: In vivo preventive test on Botrytis cinerea (beans). As to the method: To produce a suitable preparation of active compound, 1 part by weight of active compound is mixed with the stated amounts of solvent and emulsifier, and the concentrate is diluted with water to the desired concentration.
To test for preventive activity, young plants are sprayed with the preparation of active compound. After the spray coating has dried on, 2 small pieces of agar covered with growth of Botrytis cinerea are placed on each leaf. The inoculated plants are placed in a darkened chamber at 20° C. and a relative atmospheric humidity of 100%.
2 days after the inoculation, the size of the lesions on the leaves is evaluated. 0% means an efficacy which corresponds to that of the untreated control, while an efficacy of 100% means that no disease is observed.
Under these conditions, excellent (at least 95%) protection is observed at a dose of 100 ppm of active ingredient with the following compound from table E1: […]

For assay [3], the system named is Alternaria brassicae. Kind of assay: In vivo preventive test on Alternaria brassicae (leaf spot on radish). Particulars: Table C1, 500 ppm, radish plants, grading 6 days after contamination. As to the method:
as §1
Radish plants (“Pernod Clair” variety), sown in starter cups on a 50/50 peat soil pozzolana substrate and grown at 17° C., are treated at the cotyledon stage by spraying with the active ingredient prepared as described above. Plants, used as controls, are treated with the mixture of acetone/tween/DMSO/water not containing the active material.
After 24 hours, the plants are contaminated by spraying the cotyledons with an aqueous suspension of Alternaria brassicae spores (50 000 spores per mL). The spores are collected from a 15-day-old culture.
The contaminated radish plants are incubated at 20° C. and at 100% relative humidity.
Grading (% of efficacy) is carried out 6 days after the contamination, in comparison with the control plants.
Under these conditions, high (at least 80%) to excellent (at least 90%) protection is observed at a dose of 500 ppm of active ingredient with the following compounds from table C1: […]

In the case of `Cc1nn(C)c(F)c1C(=O)N(C1CC1)C(C)c1ccccc1C1=CCCC1` (racemic) [I.1], the Efficacy is 97% in assay [1]; 98% in assay [2] (Table E1, 100 ppm, lesion size 2 days after inoculation); 98% in assay [2] (Table E2, dose 100 ppm, 2 days after inoculation); “at least 95%” in assay [2] (Table E2, dose 100 ppm, 2 days after inoculation, listed as 1.1); 98% in assay [2] (Table E2, dose 250 ppm, 2 days after inoculation); “at least 95%” in assay [2] (Table E2, dose 250 ppm, 2 days after inoculation, listed as 1.1). The compound further showed an Efficacy in assay [3] of 98%.

For the origin of these results see US9540314B2, “N-cycloalkyl-N-[(cycloalkenylphenyl)methylene]-(thio) carboxamide derivatives” (BAYER INTELLECTUAL PROPERTY GMBH, priority 2012, dated 2017).
